Among the data in ChEMBL document CHEMBL1132553, “Design, synthesis, and biological evaluation of matrix metalloproteinase inhibitors derived from a modified proline scaffold” (J Med Chem, 1999) are IC50 and Absorption values, retold here.

The structures appear in SMILES notation. A value given as a limit tells only on which side of the number the result lay.

As a reminder, the IC50 is the midpoint of a concentration-inhibition curve.

The target in data set [1] is 72 kDa type IV collagenase (Homo sapiens, UniProt P08253).
Chain of 72 kDa type IV collagenase (P08253 whole entry): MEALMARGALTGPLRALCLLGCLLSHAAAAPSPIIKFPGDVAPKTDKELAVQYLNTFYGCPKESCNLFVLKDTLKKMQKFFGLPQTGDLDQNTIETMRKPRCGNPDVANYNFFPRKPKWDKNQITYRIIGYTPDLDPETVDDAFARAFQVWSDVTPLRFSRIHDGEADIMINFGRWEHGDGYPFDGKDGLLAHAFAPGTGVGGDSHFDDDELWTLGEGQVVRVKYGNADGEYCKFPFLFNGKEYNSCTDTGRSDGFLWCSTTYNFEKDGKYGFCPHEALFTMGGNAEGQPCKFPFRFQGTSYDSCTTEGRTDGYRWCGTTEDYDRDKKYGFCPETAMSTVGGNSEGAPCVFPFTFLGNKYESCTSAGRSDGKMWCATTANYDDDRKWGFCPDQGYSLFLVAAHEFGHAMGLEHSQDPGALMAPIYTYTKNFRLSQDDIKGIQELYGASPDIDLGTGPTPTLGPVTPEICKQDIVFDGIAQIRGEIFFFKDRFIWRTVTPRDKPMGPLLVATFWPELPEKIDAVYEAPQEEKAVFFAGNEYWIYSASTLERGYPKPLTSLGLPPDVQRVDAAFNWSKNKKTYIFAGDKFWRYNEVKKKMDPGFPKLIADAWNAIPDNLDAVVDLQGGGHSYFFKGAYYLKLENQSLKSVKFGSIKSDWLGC
Description: In vitro inhibitory activity against gelatinase-A (matrix metalloprotease-2).
In data set [2] the target is T1, Interstitial collagenase (Homo sapiens, UniProt P03956).
T1 sequence (P03956 whole entry): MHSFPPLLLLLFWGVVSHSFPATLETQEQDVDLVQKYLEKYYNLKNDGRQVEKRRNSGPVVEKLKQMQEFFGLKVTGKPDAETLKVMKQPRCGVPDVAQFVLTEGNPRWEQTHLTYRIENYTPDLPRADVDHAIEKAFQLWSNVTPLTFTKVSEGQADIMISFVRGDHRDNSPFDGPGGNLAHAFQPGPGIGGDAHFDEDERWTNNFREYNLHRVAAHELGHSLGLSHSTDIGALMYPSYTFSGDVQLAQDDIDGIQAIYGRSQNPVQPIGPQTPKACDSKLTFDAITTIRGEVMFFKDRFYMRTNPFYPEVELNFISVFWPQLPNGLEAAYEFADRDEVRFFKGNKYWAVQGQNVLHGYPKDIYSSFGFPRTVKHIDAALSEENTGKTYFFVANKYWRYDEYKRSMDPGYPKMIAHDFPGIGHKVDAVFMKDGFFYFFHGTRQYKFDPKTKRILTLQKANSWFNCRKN
Briefly: In vitro inhibition of human recombinant collagenase-1 (Matrix metalloprotease-1, MMP-1).

Data set [3] concerns the target T2, Matrilysin (Homo sapiens, UniProt P09237).
T2 sequence (P09237 whole entry): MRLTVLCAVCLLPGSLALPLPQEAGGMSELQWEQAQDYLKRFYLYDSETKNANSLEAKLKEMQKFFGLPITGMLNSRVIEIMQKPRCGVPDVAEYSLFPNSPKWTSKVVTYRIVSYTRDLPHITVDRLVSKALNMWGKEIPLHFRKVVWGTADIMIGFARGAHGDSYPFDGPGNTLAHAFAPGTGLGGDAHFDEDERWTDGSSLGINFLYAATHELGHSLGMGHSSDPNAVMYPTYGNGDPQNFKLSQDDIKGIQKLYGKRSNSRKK
Nature of the data set: In vitro inhibition of matrilysin (Matrix metalloprotease-7, MMP-7).

The target of data set [4] is Stromelysin-1 (Homo sapiens, UniProt P08254). Briefly: In vitro inhibition activity of human recombinant stromelysin (Matrix metalloprotease-3).
Chain of Stromelysin-1 (P08254 whole entry): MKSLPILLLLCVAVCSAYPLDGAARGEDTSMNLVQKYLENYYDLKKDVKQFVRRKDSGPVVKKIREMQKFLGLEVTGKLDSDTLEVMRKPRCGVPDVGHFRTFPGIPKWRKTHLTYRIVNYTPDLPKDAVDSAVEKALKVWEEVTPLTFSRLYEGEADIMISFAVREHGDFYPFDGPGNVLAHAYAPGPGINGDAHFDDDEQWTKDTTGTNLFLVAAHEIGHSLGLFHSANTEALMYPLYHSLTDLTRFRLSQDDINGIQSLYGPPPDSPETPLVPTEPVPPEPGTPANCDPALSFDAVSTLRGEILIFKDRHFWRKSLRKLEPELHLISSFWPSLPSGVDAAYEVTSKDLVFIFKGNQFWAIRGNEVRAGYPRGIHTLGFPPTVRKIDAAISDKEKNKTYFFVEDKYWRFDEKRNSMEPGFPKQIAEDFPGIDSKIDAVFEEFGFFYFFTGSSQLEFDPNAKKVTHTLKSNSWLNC
The target in data set [5] is Collagenase 3 (Homo sapiens, UniProt P45452). Briefly: In vitro inhibition of human recombinant collagenase-3 (Matrix metalloprotease-13).
Data set [6] is filed under the species Rattus norvegicus. Nature of the data set: In vitro percent permeability into rat ileum; Range is 78-81. It counts as ADME. The following applies: in vivo.

As for `CO/N=C1/C[C@H](C(=O)NO)N(S(=O)(=O)c2ccc(OC)cc2)C1`, the IC50 in data set [1] was below 1 nM; in data set [2], 10 nM; in data set [3], 82 nM; in data set [4], 3 nM; in data set [5], below 0.5 nM. In addition, the Absorption in data set [6] is 81%.
